Earlier results, collected in patent US11813363B1, “Concentrated nutritional or supplemental compound for intestinal, gut-brain axis and neurobiological homeostasis through calibrated absorption including neurotransmitter or any equilibrating compound release to treat or mitigate disease and co-morbidities, particularly obesity and malnourishment” (priority 2022, dated 2023).

Conditions: oral ingestion; reddish-orange color of urine

- time to visible urine color change after ingestion (earliest): ≥ 20 min
- time to visible urine color change after ingestion (latest): within one hour
Compound: Cl.Nc1ccc(/N=N/c2ccccc2)c(N)n1 [phenazopyridine, phenazopyridine hydrochloride]
